Values after ≈ are worked out from the molar mass of the structure shown. Read-outs that look alike come from different tables or passages of the source.
Assays:
[1] = system: Pseudomonas aeruginosa R4 KY8511; test: MIC, agar dilution method, pH 7.2; type: cell-based
Description: (§1) Measurement was carried out according to the agar dilution method, using a medium of pH 8.0, or the Japanese Antibiotic Medicament Standard, using a medium of pH 7.2 Units are in mcg/ml.
(§2) 4: gentamicin, producing acetyltransferase type I.

[2] = system: Escherichia coli R19 KY8348; test: MIC, agar dilution method, pH 7.2; type: cell-based
Description: as §1, §2

[3] = system: Pseudomonas aeruginosa R5 KY8512; test: MIC, agar dilution method, pH 7.2; type: cell-based; details: R5KY8512, pH 7.2, read-out: Minimum inhibition concentration (MIC)
Description: as §1
6: neomycin, producing phosphotransferase type I and type II.

[4] = system: Escherichia coli R20 KY8349; test: MIC, agar dilution method, pH 7.2; type: cell-based
Description: as §1
5: neomycin, producing phosphotransferase type I.

Providencia sp 164 = test: MIC, agar dilution method, pH 7.2; type: cell-based
Description: as §1
7: gentamicin, producing acetyltransferase type II.

[5] = system: Klebsiella pneumoniae 3020 Y-60; test: MIC, agar dilution method, pH 7.2; type: cell-based
Description: as §1
(§3) **1: gentamicin, producing adenylsynthetase.

Escherichia coli 76-2 = test: MIC, agar dilution method, pH 7.2; type: cell-based; details: Escherichia coli, 762, pH 7.2, read-out: Minimum inhibition concentration (MIC)
Description: as §1, §3

[6] = system: Escherichia coli R18 KY8321; test: MIC, agar dilution method, pH 7.2; type: cell-based; details: R18KY8321, E. coli R18 KY8321, 2**: gentamicin, producing adenylsynthetase and neomycin phosphotransferase type II, read-out: Minimum inhibition concentration (MIC)
Description: as §1
2: gentamicin, producing adenylsynthetase and neomycin phosphotransferase

[7] = system: Klebsiella pneumoniae KY4275 ATCC10031; test: MIC, agar dilution method, pH 8.0; type: cell-based
Description: as §1
K.P.: Klebsiella pneumoniae KY4275 ATCC10031.

[8] = system: Escherichia coli R17 Z343; test: MIC, agar dilution method, pH 7.2; type: cell-based; details: R17Z343, pH 7.2, read-out: Minimum inhibition concentration (MIC)
Description: as §1
(§4) 3: kanamycin, producing acetyltransferase.

[9] = system: Pseudomonas aeruginosa R9 KY8516; test: MIC, agar dilution method, pH 7.2; type: cell-based
Description: as §1, §4

Serratia marcescens 1065 = test: MIC, agar dilution method, pH 7.2; type: cell-based; details: Serratia marcescens, 1065, pH 7.2, read-out: Minimum inhibition concentration (MIC)
Description: as §1, §4

Shigella sonnei ATCC9290 = test: MIC, agar dilution method, pH 7.2; type: cell-based; details: read-out: Minimum inhibition concentration (MIC)
Description: as §1

[10] = system: Staphylococcus aureus 209-P; test: MIC, agar dilution method, pH 7.2; type: cell-based
Description: as §1

Escherichia coli NIHTC-2 = test: MIC, agar dilution method, pH 7.2; type: cell-based; details: Escherichia coli, NIHTC2, pH 7.2, read-out: Minimum inhibition concentration (MIC)
Description: as §1

[11] = system: Eschericihia coli GN2411-5; test: MIC, agar dilution method, pH 7.2; type: cell-based; details: Escherichia coli, GN2411, pH 7.2, read-out: Minimum inhibition concentration (MIC)
Description: as §1

[12] = system: Klebsiella pneumoniae KY4274; test: MIC, agar dilution method, pH 7.2; type: cell-based; details: Klebsiella pneumoniae, KY4274, pH 7.2, read-out: Minimum inhibition concentration (MIC)
Description: as §1

[13] = system: Staphylococcus aureus Smith (A); test: MIC, agar dilution method, pH 7.2; type: cell-based
Description: as §1

[14] = system: Pseudomonas aeruginosa BMH# 1; test: MIC, agar dilution method, pH 7.2; type: cell-based; details: Pseudomonas aeruginosa, pH 7.2, read-out: Minimum inhibition concentration (MIC)
Description: as §1

[15] = system: Pseudomonas aeruginosa UCLA 4184; test: MIC, agar dilution method, pH 7.2; type: cell-based
Description: as §1

[16] = system: Salmonella enteritidis G-14; test: MIC, agar dilution method, pH 7.2; type: cell-based; details: Salmonella enterica, ENTERITIDIS, pH 7.2, read-out: Minimum inhibition concentration (MIC)
Description: as §1

Proteus vulgaris JJ = test: MIC, agar dilution method, pH 7.2; type: cell-based; details: Proteus vulgaris, pH 7.2, read-out: Minimum inhibition concentration (MIC)
Description: as §1

[17] = system: Proteus vulgaris KY4277 ATCC6897; test: MIC, agar dilution method, pH 8.0; type: cell-based; details: ATCC6897; pH 8.0; Proteus vulgaris KY4277; read-out: Minimum inhibition concentration (MIC), PV
Description: as §1

[18] = system: Shigella sonnei KY4281 ATCC9290; test: MIC, agar dilution method, pH 8.0; type: cell-based; details: ATCC9290; pH 8.0; Shigella sonnei KY4281; read-out: Minimum inhibition concentration (MIC), SS
Description: as §1

[19] = system: Eschericia coli KY4271 ATCC26; test: MIC, agar dilution method, pH 8.0; type: cell-based; details: Escherichia coli, ATCC26; pH 8.0; E. coli KY4271; read-out: Minimum inhibition concentration (MIC), EC
Description: as §1
E.C.: Eschericia coli KY4271 ATCC26

Bacillus subtilis KY4273 = test: MIC, agar dilution method, pH 8.0; type: cell-based; details: pH 8.0; Bacillus subtilis KY4273; read-out: Minimum inhibition concentration (MIC), BS
Description: as §1
B.S.: Bacillus subtilis KY4273

[20] = system: Staphylococcus a ureus 226; test: MIC, agar dilution method, pH 7.2; type: cell-based, Staphylococcus aureus
Description: as §1

[21] = system: Staphylococcus aureus KY4279 ATCC6538P; test: MIC, agar dilution method, pH 8.0; type: cell-based; details: pH 8.0, Staphylococcus aureus KY4279, read-out: Minimum inhibition concentration (MIC), SA
Description: as §1
S.A.: Staphylococcus aureus KY4279 ATCC6538P

| Structure (SMILES) | MIC [3] [µg/mL] | MIC (Escherichia coli 76-2) [µg/mL] | MIC [6] [µg/mL] | MIC [8] [µg/mL] | MIC (Serratia marcescens 1065) [µg/mL] | MIC (Shigella sonnei ATCC9290) [µg/mL] | MIC (Escherichia coli NIHTC-2) [µg/mL] | MIC [11] [µg/mL] | MIC [12] [µg/mL] | MIC [14] [µg/mL] | MIC [16] [µg/mL] | MIC (Proteus vulgaris JJ) [µg/mL] | MIC [17] [µg/mL] | MIC [18] [µg/mL] | MIC [19] [µg/mL] | MIC (Bacillus subtilis KY4273) [µg/mL] | MIC [21] [µg/mL] | further results |
| --- | --- | --- | --- | --- | --- | --- | --- | --- | --- | --- | --- | --- | --- | --- | --- | --- | --- | --- |
| CO[C@H]1[C@@H](O)[C@H](N)[C@@H](O[C@H]2O[C@H]([C@H](C)N)CC[C@H]2N)[C@H](O)[C@@H]1N(C)C(=O)CN [Compound 2, 4-N-glycylfortimicin B, reference compound] | 12.5 (≈ 30.8 µM) | 3.12 (≈ 7.69 µM) | 3.12 (≈ 7.69 µM) | 1.56 (≈ 3.85 µM) | 6.25 (≈ 15.4 µM) | 6.25 (≈ 15.4 µM) | 3.12 (≈ 7.69 µM) | 6.25 (≈ 15.4 µM) | 3.12 (≈ 7.69 µM) | 12.5 (≈ 30.8 µM) | 6.25 (≈ 15.4 µM) | 3.12 (≈ 7.69 µM) | 0.32 (≈ 0.789 µM) | 0.63 (≈ 1.55 µM) | 0.16 (≈ 0.395 µM) | 0.04 (≈ 0.0986 µM) | 0.04 (≈ 0.0986 µM) | MIC ([1]; R4KY8511, pH 7.2, read-out: Minimum inhibition concentration (MIC)): > 100 µg/mL; MIC ([2]; R19KY8348, pH 7.2, read-out: Minimum inhibition concentration (MIC)): > 100 µg/mL; MIC ([4]; R20KY8349, pH 7.2, E. coli R20 KY8349, 5**: neomycin, producing phosphotransferase type I, read-out: Minimum inhibition concentration (MIC)): 3.12 µg/mL (≈ 7.69 µM); MIC (Providencia sp 164; Providencia, 164, pH 7.2, read-out: Minimum inhibition concentration (MIC)): 25 µg/mL (≈ 61.7 µM); MIC ([5]; Klebsiella pneumoniae, 3020Y60, pH 7.2, read-out: Minimum inhibition concentration (MIC)): 12.5 µg/mL (≈ 30.8 µM); MIC ([7]; Klebsiella pneumoniae, ATCC10031, pH 8, read-out: Minimum inhibition concentration (MIC), KP): 0.16 µg/mL (≈ 0.395 µM); MIC ([9]; R9KY8516, pH 7.2, read-out: Minimum inhibition concentration (MIC)): 50 µg/mL (≈ 123 µM); MIC ([10]; Staphylococcus aureus, 209P, pH 7.2, read-out: Minimum inhibition concentration (MIC)): 0.78 µg/mL (≈ 1.92 µM); MIC ([13]; Staphylococcus aureus, pH 7.2, read-out: Minimum inhibition concentration (MIC)): 0.78 µg/mL (≈ 1.92 µM); MIC ([15]; Pseudomonas aeruginosa, UCLA4184, pH 7.2, read-out: Minimum inhibition concentration (MIC)): 25 µg/mL (≈ 61.7 µM); MIC ([20]; pH 7.2, read-out: Minimum inhibition concentration (MIC)): 0.78 µg/mL (≈ 1.92 µM) |
| CO[C@H]1[C@@H](O)[C@H](N)[C@@H](O[C@H]2O[C@H]([C@H](C)N)CC[C@H]2N)[C@H](O)[C@@H]1N(C)C[C@@H](O)CCN [Compound 27, 4-N-[(S)-4-amino-2-hydroxybutyl]fortimicin B] | 6.25 (≈ 14.3 µM) | 6.25 (≈ 14.3 µM) | 6.25 (≈ 14.3 µM) | 3.12 (≈ 7.16 µM) | 6.25 (≈ 14.3 µM) | 3.12 (≈ 7.16 µM) | 3.12 (≈ 7.16 µM) | 6.25 (≈ 14.3 µM) | 3.12 (≈ 7.16 µM) | 6.25 (≈ 14.3 µM) | 3.12 (≈ 7.16 µM) | 3.12 (≈ 7.16 µM) | 0.32 (≈ 0.735 µM) | 1.25 (≈ 2.87 µM) | 0.16 (≈ 0.367 µM) | 0.04 (≈ 0.0918 µM) | 0.04 (≈ 0.0918 µM) | MIC ([1]; R4KY8511, pH 7.2, P. aeruginosa R4 KY8511, 4**: gentamicin, producing acetyltransferase type I, read-out: Minimum inhibition concentration (MIC)): > 100 µg/mL; MIC ([2]; R19KY8348, pH 7.2, E. coli R19 KY8348, 4**: gentamicin, producing acetyltransferase type I, read-out: Minimum inhibition concentration (MIC)): > 100 µg/mL; MIC ([4]; R20KY8349, pH 7.2, read-out: Minimum inhibition concentration (MIC)): 1.25 µg/mL (≈ 2.87 µM); MIC (Providencia sp 164; pH 7.2, Providencia sp 164, 7**: gentamicin, producing acetyltransferase type II, read-out: Minimum inhibition concentration (MIC)): 25 µg/mL (≈ 57.4 µM); MIC ([5]; 3020Y60, pH 7.2, Klebsiella pneumoniae 3020 Y-60, 1**: gentamicin, producing adenylsynthetase, read-out: Minimum inhibition concentration (MIC)): 12.5 µg/mL (≈ 28.7 µM); MIC ([7]; ATCC10031, pH 8.0, Klebsiella pneumoniae KY4275, read-out: Minimum inhibition concentration (MIC), KP): 0.32 µg/mL (≈ 0.735 µM); MIC ([9]; R9KY8516, pH 7.2, P. aeruginosa R9 KY8516, 3**: kanamycin, producing acetyltransferase, read-out: Minimum inhibition concentration (MIC)): 25 µg/mL (≈ 57.4 µM); MIC ([10]; pH 7.2, Staphylococcus aureus 209-P, read-out: Minimum inhibition concentration (MIC)): 0.4 µg/mL (≈ 0.918 µM); MIC ([13]; pH 7.2, Staphylococcus aureus Smith (A), read-out: Minimum inhibition concentration (MIC)): 0.4 µg/mL (≈ 0.918 µM); MIC ([15]; UCLA4184, pH 7.2, Pseudomonas aeruginosa UCLA 4184, read-out: Minimum inhibition concentration (MIC)): 25 µg/mL (≈ 57.4 µM); MIC ([20]; pH 7.2, Staphylococcus aureus 226, read-out: Minimum inhibition concentration (MIC)): 0.4 µg/mL (≈ 0.918 µM) |

Source: US4220755A, “Fortimicin B derivatives and process for production thereof” (Abbott Laboratories, priority 1976, dated 1980)
